Test systems include COLO 205 colon; HCT-15 colon; NCI-H23 lung; SK-OV-3 ovarian; SN12C renal; TK-10 renal; U251 CNS; IGROV1 ovarian.
Test in all cases: NCI-60 cell line screen, 48 h

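All cell lines were grown in 96-well plates and treated with compound for 48 hours. At the GI50, growth is halved. The concentration for full growth arrest is given as TGI.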

With `O=C(c1ccc2ccccc2c1)c1c(C(F)(F)F)n([O-])c2ccc(F)cc2[n+]1=O`, the GI50 in the test with COLO 205 colon was 188 nM; in the test on HCT-15 colon it was 354 nM; in the test with NCI-H23 lung, 574 nM; with SK-OV-3 ovarian, 2160 nM; in the test on SN12C renal, 1.29 µM; in the test on TK-10 renal, 1580 nM. Moreover, the GI50 with U251 CNS was 1470 nM. The TGI in the test on COLO 205 colon is 0.425 µM; with HCT-15 colon, 1.26 µM; with NCI-H23 lung, 1.91 µM; in the test with SK-OV-3 ovarian, 5.05 µM; with SN12C renal, 2.74 µM; in the test on TK-10 renal, 3.02 µM. This compound gave a TGI in the test with U251 CNS of 2.81 µM.

Regarding `CN=C(N)N/N=C(\C)c1ccc2c(c1)Cc1ccccc1-2`, the GI50 was 1660 nM in the test with COLO 205 colon; 1830 nM in the test with HCT-15 colon; 3.74 µM in the test with IGROV1 ovarian; 2840 nM with NCI-H23 lung; 1610 nM in the test on SK-OV-3 ovarian; 1.92 µM with SN12C renal. The GI50 with TK-10 renal was 3180 nM. Further, the TGI with COLO 205 colon turned out to be 3.02 µM; in the test with HCT-15 colon it was 3.86 µM; with IGROV1 ovarian, 19.5 µM; in the test on NCI-H23 lung, 12.3 µM; in the test on SK-OV-3 ovarian, 5.1 µM; with SN12C renal it was 5.38 µM. Moreover, the TGI in the test with TK-10 renal worked out at 14.8 µM.

For `Cc1cc(Nc2nc(-c3ccncc3)nc3ccccc23)n[nH]1`, the GI50 with COLO 205 colon is 2170 nM; with HCT-15 colon, 1770 nM; in the test with IGROV1 ovarian, 1.92 µM; in the test on SK-OV-3 ovarian it was 3450 nM; in the test with SN12C renal, 4.55 µM; in the test on TK-10 renal, 2070 nM. For the same compound, the GI50 with U251 CNS was 4100 nM. In addition, the TGI in the test with COLO 205 colon is 6.4 µM; in the test with HCT-15 colon, more than 100 µM; in the test on IGROV1 ovarian it was more than 100 µM; in the test with SK-OV-3 ovarian, more than 100 µM; with SN12C renal it was more than 100 µM; with TK-10 renal, more than 100 µM. This compound gave a TGI in the test with U251 CNS of more than 100 µM.

`O=C(/C=C/c1ccccc1)CCC1C(=O)NC(=S)NC1=O`: the TGI in the test on COLO 205 colon, in the test on HCT-15 colon, in the test on NCI-H23 lung, in the test with SK-OV-3 ovarian, in the test with SN12C renal and in the test with U251 CNS was more than 100 µM each time.

With `Nc1ccn(C2OC(C(OC3OC(CO)C(O)C(N)C3O)C(O)C(O)C(O)C(O)CO)C(N)C(O)C2O)c(=O)n1` (centres undefined), the TGI in the test on COLO 205 colon, with HCT-15 colon, in the test with IGROV1 ovarian, with NCI-H23 lung, in the test with SN12C renal and in the test on TK-10 renal was more than 100 µM throughout. In the test with U251 CNS, this compound showed a TGI of more than 100 µM.

Consider `COc1cc2c(cc1OCCCOc1ccc(-c3nc4ccc(N5CCN(C)CC5)cc4[nH]3)cc1)N=C[C@@H]1CCCN1C2=O`, for which the GI50 was less than 10 nM in the test with COLO 205 colon; less than 21.2 nM in the test with HCT-15 colon; less than 10 nM in the test on NCI-H23 lung; less than 10 nM with SK-OV-3 ovarian; less than 0.01 µM in the test with SN12C renal; less than 10 nM in the test with TK-10 renal. Further, the GI50 in the test with U251 CNS was less than 10 nM. For the same compound, the TGI with COLO 205 colon is more than 100 µM; in the test with HCT-15 colon, 42.8 µM; with NCI-H23 lung, less than 0.01 µM; with SK-OV-3 ovarian, 22.8 µM; with SN12C renal, less than 0.01 µM; in the test with TK-10 renal, 0.492 µM. In the test on U251 CNS, the TGI came to 5.07 µM.

As to `Nc1nc(N)c2c(n1)NC(c1sc(Cl)nc1Cl)CC(c1ccc3c(c1)OCO3)=N2` (centres undefined), the GI50 was 3480 nM in the test with COLO 205 colon; 1070 nM in the test with HCT-15 colon; 10.4 µM in the test with IGROV1 ovarian; 8870 nM in the test on NCI-H23 lung; 2780 nM in the test with SK-OV-3 ovarian; 6.55 µM in the test on SN12C renal. Moreover, in the test on TK-10 renal, the GI50 was 15000 nM. The TGI was found to be 12.7 µM in the test with COLO 205 colon; 20 µM in the test on HCT-15 colon; 47.6 µM in the test with IGROV1 ovarian; 38.2 µM in the test on NCI-H23 lung; 9.77 µM with SK-OV-3 ovarian; 22.3 µM in the test with SN12C renal. Also, the TGI in the test on TK-10 renal came out at 44.2 µM.

For the compound `Cc1ccc(S(=NS(=O)(=O)c2ccc(C)cc2)c2ccc(C)cc2)cc1`, the TGI with COLO 205 colon, with HCT-15 colon, in the test on NCI-H23 lung, in the test with SN12C renal, in the test with TK-10 renal and in the test with U251 CNS was more than 100 µM each time.

Take `Oc1ccc(Cl)cc1/C=N\NC(=S)N/N=C/c1cc(Cl)ccc1O`: the GI50 was 3340 nM in the test with COLO 205 colon; 997 nM in the test with HCT-15 colon; 2.52 µM in the test on IGROV1 ovarian; 4610 nM in the test on NCI-H23 lung; 3.12 µM in the test on SN12C renal; 2680 nM in the test on TK-10 renal. The GI50 in the test with U251 CNS is 1080 nM. In addition, the TGI in the test with COLO 205 colon is 41.6 µM; in the test on HCT-15 colon, more than 100 µM; with IGROV1 ovarian, more than 100 µM; with NCI-H23 lung it was 67.7 µM; with SN12C renal it was 64.7 µM; with TK-10 renal, 34.5 µM. This compound displayed a TGI in the test on U251 CNS of more than 100 µM.

Take `CC(C(N)=O)N(C)C(=O)c1cnc2ccccc2c1` (centres undefined): the TGI with COLO 205 colon, with HCT-15 colon, in the test on IGROV1 ovarian, in the test on SN12C renal, in the test with TK-10 renal and with U251 CNS was more than 100 µM each time.

The values above are taken from PubChem BioAssay (NCI).
